These results are taken from ChEMBL document CHEMBL5104217, “Identification of a Target Site for Covalent Inhibition of Protein Phosphohistidine Phosphatase 1” (ACS Med Chem Lett, 2022).

Usually IC50 stands for the point on the concentration scale where inhibition reaches its midpoint. Read a high IC50 as weaker potency in that assay. As a reminder, the Ki is a measure of affinity in units of concentration, obtained from inhibition or displacement.

The target in test [1] is T1, 14 kDa phosphohistidine phosphatase (Homo sapiens) (UniProt Q9NRX4).
T1 sequence (whole entry): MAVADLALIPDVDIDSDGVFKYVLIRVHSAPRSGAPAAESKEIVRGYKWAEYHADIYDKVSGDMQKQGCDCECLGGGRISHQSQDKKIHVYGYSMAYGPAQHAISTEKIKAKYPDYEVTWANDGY
Kind of test: Covalent inhibition of human PHPT1 expressed in Escherichia coli BL21 (DE3) using pNPP as substrate at 10 equiv preincubated for 60 mins by multimode microplate reader analysis.

Test [2] concerns the target T2, 14 kDa phosphohistidine phosphatase (Homo sapiens, UniProt Q9NRX4).
T2 sequence (Q9NRX4 whole entry): T1 sequence (whole entry)
Kind of test: Inhibition of human PHPT1 expressed in Escherichia coli BL21 (DE3) using pNPP as substrate incubated for 1 hr by multimode microplate reader analysis.

Test [3] has as its target T1, 14 kDa phosphohistidine phosphatase (Homo sapiens). Put plainly: Covalent inhibition of human PHPT1 expressed in Escherichia coli BL21 (DE3) assessed as inhibition of dephosphorylation of histidine-phosphorylated BSA at 10 equiv preincubated for 1 hr followed by substrate addition and measured for 150 secs by Western blot analysis. The note with it: time 3750.0 sec.

The target is the same in test [4]. Put plainly: Covalent inhibition of human PHPT1 expressed in Escherichia coli BL21 (DE3) assessed as increase in protein mass at 10 equiv incubated for 1 hr by RP-HPLC based ESI-MS analysis.
The species named for test [5] is Homo sapiens. Kind of test: Covalent binding affinity to human PHPT1 C69A mutant expressed in Escherichia coli BL21 (DE3) assessed as covalent adduct formation at 10 equiv incubated for 1 hr by RP-HPLC based ESI-MS analysis.
Test [6] concerns the target T1, 14 kDa phosphohistidine phosphatase (Homo sapiens). Put plainly: Inhibition of human PHPT1 expressed in Escherichia coli BL21 (DE3) using pNPP as substrate assessed as Kinact/Ki by reciprocal analysis.
The target is the same in test [7]. Put plainly: Inhibition of human PHPT1 expressed in Escherichia coli BL21 (DE3) using pNPP as substrate assessed as Kinact by reciprocal analysis.
Test [8] addresses T2, 14 kDa phosphohistidine phosphatase. Kind of test: Inhibition of human PHPT1 expressed in Escherichia coli BL21 (DE3) using pNPP as substrate assessed as inhibition constant by reciprocal analysis.
The species entered for test [9] is Homo sapiens. Kind of test: Covalent binding affinity to human PHPT1 C71A mutant expressed in Escherichia coli BL21 (DE3) assessed as covalent adduct formation at 10 equiv incubated for 1 hr by RP-HPLC based ESI-MS analysis.

Molecules are shown by their SMILES. The source made the active and inactive calls. The rule behind the calls is not given here.

For `C=C(CC)C(=O)c1ccc(OCC(=O)O)c(Cl)c1Cl` [ETHACRYNIC ACID], the inhibition result in test [1], in test [3] and in [4] was “Active” throughout. The IC50 in test [2] was 18.3 µM. Also, the result in the test listed under Homo sapiens [5] and in the test filed under Homo sapiens [9] was Active. In addition, the Ratio in test [6] was found to be 14.6 M⁻¹ s⁻¹. Besides, the Kinact in test [7] was determined as 0.00267 s⁻¹. The Ki in test [8] came out at 183 µM.
Take `CCN1C(=O)C=CC1=O` [N-ETHYLMALEIMIDE]: in test [6], the Ratio came to 31 M⁻¹ s⁻¹. In addition, the Kinact in [7] is 0.0075 s⁻¹. In addition, the Ki in test [8] came to 209 µM.
